In publication PMC3750255, “Inhibition of Mycoplasma pneumoniae growth by FDA-approved anticancer and antiviral nucleoside and nucleobase analogs” (BMC Microbiology, 2013):
Values after ≈ are worked out from the molar mass of the structure shown. Values joined by “and” are separate entries in the source; they are usually repeats but may differ in a detail not shown here. Equal entries are not always repeated. Where two headings read alike, the source gives them in different places.

Columns and labels:
[1] = test system: M. pneumoniae wild type (laboratory strain M129); assay: Mpn growth inhibition in 96-well plates (growth index A450/A560), wild type strain; type: cell-based, Mycoplasma pneumoniae; details: for MIC: Mycoplasmoides pneumoniae, read-out: Wild type MIC
Protocol: (§1) A series dilution of each compound in Mycoplasma growth medium was added to Mpn cultures in 96-well plates. The plates were sealed and incubated at 37°C. Mpn growth was monitored by using growth index value e.g. the ratio of absorbance at 450 nm and 560 nm of the culture medium. Thirty nucleoside and nucleobase analogs and a nucleoside transporter inhibitor were included, and two Mpn strains, wild type and a thyA mutant (lacking TS activity), were used.
(§2) Nucleoside and nucleobase analogs were dissolved in dimethyl sulfoxide (DMSO) as stock solutions and diluted with Mpn culture medium to the desired concentration immediately prior to use.
(§3) Mpn laboratory strain M129 wild type and a thyA mutant strain [31] were used in this study. Mpn was cultured at 37°C in a CO2 incubator using 75 cm^2 tissue culture flasks containing 50 ml Hayflick’s medium, and harvested at day 4 when the medium color change was observed. The cells were harvested and the pellet was resuspended in 6 ml fresh medium and the cfu/ml was determined by serial dilution (10-fold) and plating on broth agar plate. Colonies was counted and cfu/ml was calculated.
(§4) Inhibition studies were performed in 96-well plates containing 200 μl Mpn culture (approximately 10^6 cfu ml^-1) in Hayflick’s medium and 200 μl each compound in series dilutions (2-fold) with the growth medium, with three to four replicas. The plates were sealed with clear adhesive sheets and incubated at 37°C incubator. Absorbance ratio at 450 nm and 560 nm was used as Mpn growth index, which was measured daily, and by visual detection for at least 8 days, as previously described. […] The MICs (minimal inhibitory concentration required to inhibit Mpn growth to 90%) were determined as the lowest concentration at which the growth index was ≈ 10% of the control values (at the time when the control culture medium color turned yellow), essentially as described.

[2] = test system: M. pneumoniae thyA mutant (lacking TS activity); assay: microbe, parasite or virus in culture; type: cell-based, Mycoplasma pneumoniae; details: Mycoplasmoides pneumoniae, read-out: thyA mutant MIC
Protocol: as §1, §2, §3, §4

Mpn wild type cells = assay: Uptake and metabolism of tritium labelled natural nucleoside and nucleobases in the presence of analogs; type: cell-based, Mycoplasma pneumoniae; details: for [3H]-Ade Total uptake / [3H]-Gua Total uptake / [3H]-Hx Total uptake / [3H]-Ura Total uptake / [3H]-dT Total uptake / [3H]-Ade Incorporation / [3H]-Gua Incorporation / [3H]-Hx Incorporation / [3H]-Ura Incorporation / [3H]-dT Incorporation: 10 μM analog, 70 hours; for [3H]-Ade Total uptake / [3H]-Gua Total uptake / [3H]-Hx Total uptake / [3H]-Ura Total uptake / [3H]-dT Total uptake: 37°C, radioactivity in cells / total added; for [3H]-Ade Incorporation / [3H]-Gua Incorporation / [3H]-Hx Incorporation / [3H]-Ura Incorporation / [3H]-dT Incorporation: acid insoluble fraction / total in cells
Protocol: The cells were harvested and analyzed essentially as described. Analogs used were dipyridamole, 6-thioguanine (6-TG), trifluorothymidine (TFT), gemcitabine (dFdC) and 5-fluorodeoxyuridine (5FdU). Total uptake is the percent of radioactivity recovered in the cells divided by total radioactivity added to the growth medium. Percent of acid insoluble (radioactivity found in DNA and RNA) was also calculated. These experiments were done more than three times and data are given as mean ± SD.

Ureaplasma TK = target: T1, Ureaplasma TK (Ureaplasma parvum serovar 3, UniProt Q9PPP5); assay: Thymidine kinase inhibition with [3H]-dT as substrate; type: biochemical; details: 10 μM tritium labelled thymidine
T1 construct: made in house
T1 sequence (Q9PPP5 1-223): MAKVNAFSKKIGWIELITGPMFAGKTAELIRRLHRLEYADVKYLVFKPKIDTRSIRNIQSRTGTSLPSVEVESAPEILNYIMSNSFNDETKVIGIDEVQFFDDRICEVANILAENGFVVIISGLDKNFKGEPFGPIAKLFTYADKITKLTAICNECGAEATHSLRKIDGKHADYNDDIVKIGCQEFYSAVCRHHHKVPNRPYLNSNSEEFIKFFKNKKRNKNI
Protocol: (§5) Thymidine kinase assay was performed using tritium labelled thymidine ([^3H]-dT) as substrate and various concentrations of the inhibitors essentially as previously described to determine the IC50 values of TFT and 5FdU.

human TK1 = target: T2, human TK1 (Homo sapiens, UniProt P04183); assay: as above; type: biochemical; details: 10 μM tritium labelled thymidine
T2 construct: made in house
T2 sequence (P04183 1-234): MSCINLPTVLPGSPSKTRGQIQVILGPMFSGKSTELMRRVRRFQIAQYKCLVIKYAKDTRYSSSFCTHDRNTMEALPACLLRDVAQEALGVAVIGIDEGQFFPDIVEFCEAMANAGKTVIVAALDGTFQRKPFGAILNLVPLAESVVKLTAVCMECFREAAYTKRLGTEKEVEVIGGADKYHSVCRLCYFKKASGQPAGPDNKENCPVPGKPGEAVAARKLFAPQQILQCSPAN
Protocol: as §5

human TK2 = target: T3, human TK2 (Homo sapiens, UniProt O00142); assay: as above; type: biochemical; details: 10 μM tritium labelled thymidine
T3 construct: made in house
T3 sequence (O00142 34-265): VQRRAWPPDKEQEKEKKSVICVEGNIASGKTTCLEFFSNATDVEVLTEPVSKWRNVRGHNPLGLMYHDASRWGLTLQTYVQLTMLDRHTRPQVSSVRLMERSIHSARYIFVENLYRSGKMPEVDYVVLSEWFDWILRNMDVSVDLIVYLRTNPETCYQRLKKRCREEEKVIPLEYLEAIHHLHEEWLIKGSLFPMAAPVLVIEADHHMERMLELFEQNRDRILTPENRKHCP
Protocol: as §5

TK in Mpn extracts = target: T4, TK in Mpn extracts (Mycoplasmoides pneumoniae, UniProt P75070); assay: Inhibition of dT phosphorylation in Mpn protein extracts; type: biochemical
T4 construct: endogenous in cells; host or cells: Mycoplasma pneumoniae M129 total protein extract
T4 sequence (P75070 1-191): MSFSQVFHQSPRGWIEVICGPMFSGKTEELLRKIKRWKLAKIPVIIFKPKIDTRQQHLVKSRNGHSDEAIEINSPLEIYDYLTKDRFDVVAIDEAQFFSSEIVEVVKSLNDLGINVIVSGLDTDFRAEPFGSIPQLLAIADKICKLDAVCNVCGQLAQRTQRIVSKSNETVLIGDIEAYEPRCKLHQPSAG
Protocol: Both TFT and 5FdU are substrates of Mycoplasma and human TKs, as described above and earlier studies.
as §5

human HPRT = target: T5, human HPRT (Homo sapiens, UniProt P00492); assay: HPRT inhibition, DE-81 filter paper assay; type: biochemical
T5 construct: made in house
T5 sequence (P00492 1-218): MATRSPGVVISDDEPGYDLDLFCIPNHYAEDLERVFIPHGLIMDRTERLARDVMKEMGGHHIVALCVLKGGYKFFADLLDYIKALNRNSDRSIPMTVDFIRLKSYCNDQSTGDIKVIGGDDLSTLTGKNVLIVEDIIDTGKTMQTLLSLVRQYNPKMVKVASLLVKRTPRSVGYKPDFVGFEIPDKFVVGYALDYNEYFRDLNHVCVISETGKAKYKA
Protocol: (§6) The reaction was initiated by addition of the enzyme, and at 0, 5, 10, and 15 min intervals, 10 μl reaction mixture was withdrawn and spotted onto the DE81 filter paper and dried. The unreacted substrate was washed and the products were eluted and counted in a liquid scintillation counter. With [^3H]-Gua as substrate the reaction (in a total of 25 μl) was initiated by addition of the enzyme (10 μl), incubated at 37°C for 2 min, stopped by addition of 1 M HCl (10 μl), and placed immediately on ice. After neutralization, 15 μl of the mixture was spotted onto the DE81-filter paper. The filters were then washed, and the products were eluted and counted by liquid scintillation.

Mpn HPRT [3] = target: T6, Mpn HPRT (Mycoplasmoides pneumoniae, UniProt P75119); assay: biochemical
T6 sequence (P75119 1-175): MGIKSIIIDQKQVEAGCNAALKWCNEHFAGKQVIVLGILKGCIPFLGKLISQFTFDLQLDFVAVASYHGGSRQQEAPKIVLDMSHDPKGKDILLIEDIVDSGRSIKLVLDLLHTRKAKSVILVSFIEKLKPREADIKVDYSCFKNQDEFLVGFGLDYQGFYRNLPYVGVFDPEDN
Protocol: as §6

Mpn HPRT [4] = target: T6, Mpn HPRT; details: as substrate of Mpn HPRT
Protocol: Data are from at least three independent measurements and are presented as mean ± standard deviation (SD).
as §6

[5] = substrate: O=c1[nH]cnc2nc[nH]c12; assay: purified protein, by the assay type; details: other: as substrate of Mpn HPRT, Michaelis-Menten; pH 7.5; 37.0 °C

| Molecule | MIC [1] | MIC [2] | [3H]-Ade Total uptake (Mpn wild type cells) | [3H]-Gua Total uptake (Mpn wild type cells) | [3H]-Hx Total uptake (Mpn wild type cells) | [3H]-Ura Total uptake (Mpn wild type cells) | [3H]-dT Total uptake (Mpn wild type cells) | [3H]-Ade Incorporation (Mpn wild type cells) | [3H]-Gua Incorporation (Mpn wild type cells) | [3H]-Hx Incorporation (Mpn wild type cells) | [3H]-Ura Incorporation (Mpn wild type cells) | [3H]-dT Incorporation (Mpn wild type cells) | further results |
| --- | --- | --- | --- | --- | --- | --- | --- | --- | --- | --- | --- | --- | --- |
| O=c1[nH]c(=O)n([C@H]2C[C@H](O)[C@@H](CO)O2)cc1F [5-fluorodeoxyuridine (5FdU), 5-fluorodeoxyuridine] | 7.8 µg/mL (≈ 31.7 µM) | 15.6 µg/mL (≈ 63.4 µM) | 0.36±0.1% | 0.16±0.03% | 0.006± 0.001% | 0.087±0.003% | 14.7±0.2% | 42±2% | 87±3% | 76±4% | 19±7% | 96.0±0.5% | Stimulation of [3H]-dT uptake (Mpn wild type cells; 10 μM analog versus control): 2 fold; IC50 (Ureaplasma TK): 1000 ± 13.3 µM; IC50 (human TK1): 75.9 ± 2.6 µM; IC50 (human TK2): 158 ± 2.7 µM; IC50 (TK in Mpn extracts): 47.9 ± 1.2 µM |
| Nc1nc2nc[nH]c2c(=S)[nH]1 [6-thioguanine (6-TG), 6-thioguanine] | 0.2 µg/mL (≈ 1.2 µM) | 0.2 µg/mL (≈ 1.2 µM) | 0.66±0.1% | 0.080±0.002% | 0.005 ± 0.0004% | 0.21±0.003% | 7.9±0.6% | 46±3% | 67±3% | 43±6% | 39±8% | 97.4±0.7% | MIC (Mpn growth) ([1]; strain not specified, 90% growth inhibition): 0.20 µg/mL (≈ 1.2 µM); IC50 (human HPRT; 10 μM [3H]-guanine, read-out: IC50 Human HPRT, substrate guanine): 39.8 ± 4 µM; IC50 (human HPRT; IC50 Human HPRT, substrate hypoxanthine, 10 μM [3H]-hypoxanthine): 20.5 ± 6.5 µM; IC50 (Mpn HPRT [3]; substrate guanine, 10 μM [3H]-guanine): 3.2 µM and 3.16 µM; IC50 (Mpn HPRT [3]; substrate hypoxanthine, 10 μM [3H]-hypoxanthine): 3.5 ± 0.5 µM |
| Nc1nc2nc[nH]c2c(=O)[nH]1 [Gua, guanine] | – | – | – | – | – | – | – | – | – | – | – | – | Hill coefficient (Mpn HPRT [4]): 3.5; Vmax (Mpn HPRT [4]): 2.7 ± 0.1 µmol/min/mg; S0.5 (Mpn HPRT [4]; Hill equation): 107.6 ± 6.2 µM |
| Mpn HPRT (Mycoplasmoides pneumoniae M129) (protein) MGIKSIIIDQKQVEAGCNAALKWCNEHFAGKQVIVLGILKGCIPFLGKLISQFTFDLQLDFVAVASYHGGSRQQEAPKIVLDMSHDPKGKDILLIEDIVDSGRSIKLVLDLLHTRKAKSVILVSFIEKLKPREADIKVDYSCFKNQDEFLVGFGLDYQGFYRNLPYVGVFDPEDN | – | – | – | – | – | – | – | – | – | – | – | – | Km [5]: 100.1 ± 6.5 µM |
